{"source": "patent US8440652B2", "about": "“MST1 kinase inhibitors and methods of their use” (Lexicon Pharmaceuticals, Inc., priority 2011, dated 2013)", "key": {"MST1": {"molecular_target": "T1, MST1 (Homo sapiens, UniProt Q13043)", "T1 sequence (Q13043 1-487)": "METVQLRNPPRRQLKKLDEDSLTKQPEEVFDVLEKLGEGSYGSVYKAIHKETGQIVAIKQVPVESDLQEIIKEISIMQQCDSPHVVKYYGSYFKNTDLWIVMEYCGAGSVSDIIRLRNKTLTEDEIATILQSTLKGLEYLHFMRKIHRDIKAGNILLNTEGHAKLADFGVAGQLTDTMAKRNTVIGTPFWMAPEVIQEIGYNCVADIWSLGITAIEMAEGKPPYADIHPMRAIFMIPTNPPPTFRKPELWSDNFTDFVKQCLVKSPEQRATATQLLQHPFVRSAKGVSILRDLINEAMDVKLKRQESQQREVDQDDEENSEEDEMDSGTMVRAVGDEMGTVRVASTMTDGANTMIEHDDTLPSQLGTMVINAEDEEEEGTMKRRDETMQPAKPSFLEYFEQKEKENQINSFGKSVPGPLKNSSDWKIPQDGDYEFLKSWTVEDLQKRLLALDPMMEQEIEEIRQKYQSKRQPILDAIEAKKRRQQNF", "experiment": "In vitro measurement of MST1 inhibition (Z′-Lyte kinase assay)", "type": "biochemical"}, "mouse EAE model": {"test_system": "mouse EAE model", "experiment": "Mouse EAE disease model", "type": "in vivo", "conditions": "mice, subcutaneous dosing, 3 mg/kg, 10 mg/kg BID 12 days from Day 9 after MOG immunization; FIG. 9A", "procedure": "Here, an adaptation of the method of Bettelli, et al., J. Immunol. 161:3299 (1998) was implemented. Eight to 12 weeks old C57Bl/6-Albino/129SvEv littermates were immunized subcutaneously with a total of 300 μg MOGp35-55 peptide ([…]) emulsified in complete Freund's adjuvant (CFA) containing 250 μg heat-inactivated Mycobacterium tuberculosis H37 Ra (Difco Laboratories). The antigen was divided equally across two injection sites in the abdominal flanks. Immediately following the injection of the emulsified antigen (day 0), each mouse received one intravenous injection of 500 ng of Pertussis toxin (List Biological Laboratories). Animal weights were recorded prior to the start of the experiment and monitored throughout the experiment, 2-3 times per week. Disease severity was scored on a scale as follows: 0=asymptomatic, no detectable sign of disease; 1=slight weakness of the tail/floppy tail and/or slumped hindquarters; 2=definite total paralysis of the tail; 3=mild waddle/distorted gait and total paralysis of the tail and/or mild impaired righting reflex; 4=heavy waddle with impaired control-weakness of hind limbs and/or impaired righting reflex; 5=paralysis of one of the hind limbs possibly with mild forelimb weakness; 6=paralysis of both hind limbs and/or moderate to severe forelimb weakness; 7=quadriplegia/paralysis of all limbs—hind and fore; 8=moribund/dead. […]"}}, "note": "Like-named read-outs stand apart in the source and are kept apart here.", "data": [{"smiles": "CN(C1CC1)S(=O)(=O)c1ccc(-c2cnc(N)c(-c3ccc4c(c3)CCNC4=O)n2)cc1", "note": "[4-(5-amino-6-(1-oxo-1,2,3,4-tetrahydroisoquinolin-6-yl)pyrazin-2-yl)-N-cyclopropyl-N-methylbenzenesulfonamide]", "values": [{"measurement": "IC50", "setting": "MST1; 1 μM ATP, read-out: IC50 (μM) 1 μM ATP", "value": "< 0.01", "unit": "µM"}, {"measurement": "IC50", "setting": "MST1; 50 μM ATP, read-out: IC50 (μM) 50 μM ATP", "value": "< 0.01", "unit": "µM"}, {"measurement": "clinical score", "setting": "mouse EAE model", "value": "clear dose-dependency in clinical score"}]}]}
